Data reported in patent US5036008A, “Antitumor antibiotic BU-3285T” (Bristol-Myers Company, priority 1990, dated 1991).
Values after ≈ are worked out from the molar mass of the structure shown.

What was measured:
A. fumigatus IAM2034 = assay: microbe, parasite or virus in culture; settings: Aspergillus fumigatus, IAM2034, 40 h, pH 7
Description: (§1) In vitro antifungal activity was determined against various fungi by the serial agar dilution method. Sabouraud dextrose agar (pH 7.0) was used for the experiment. The inoculum size was adjusted to 10^6 CFU/ml. After incubation at 28° C. for 40 hours, the minimum inhibitory concentration (MIC) was examined.

C. neoformans IAM4514 = assay: In vitro antifungal activity, serial agar dilution; settings: Cryptococcus neoformans, IAM4514, 40 h, pH 7
Description: as §1

[1] = system: Blastomyces dermatidis D40; assay: In vitro antifungal activity, serial agar dilution; settings: D40, 40 h, pH 7
Description: as §1

[2] = system: Cryptococcus neoformans D49; assay: In vitro antifungal activity, serial agar dilution; settings: D49, 40 h, pH 7
Description: as §1

Candida albicans IAM4888 = assay: In vitro antifungal activity, serial agar dilution; settings: IAM4888, 40 h, pH 7
Description: as §1

[3] = system: Petriellidium boydii IF08078; assay: In vitro antifungal activity, serial agar dilution; settings: Scedosporium boydii, IF08078, 40 h, pH 7
Description: as §1

[4] = system: Sporothrix schenckii IF08158; assay: microbe, parasite or virus in culture; settings: IF08158, 40 h, pH 7
Description: as §1

C. albicans A9540 = assay: In vitro antifungal activity, serial agar dilution; settings: Candida albicans, A9540, 40 h, pH 7
Description: as §1

Mucor spinosus IF05317 = assay: In vitro antifungal activity, serial agar dilution; settings: IF05317, 40 h, pH 7
Description: as §1

A. flavus FA21436 = assay: In vitro antifungal activity, serial agar dilution; settings: Aspergillus flavus, FA21436, 40 h, pH 7
Description: as §1

Piricularia oryzae D91 = assay: microbe, parasite or virus in culture; format: cell-based; settings: 40 h, pH 7
[5] = system: Trichophyton mentagrophytes D155; assay: In vitro antifungal activity, serial agar dilution; settings: D155, 40 h, pH 7
Description: as §1

[6] = system: Fusarium moniliforme A2284; assay: In vitro antifungal activity, serial agar dilution; settings: Fusarium verticillioides, A2284, 40 h, pH 7
Description: as §1

T. mentagrophytes #4329 = assay: In vitro antifungal activity, serial agar dilution; settings: Trichophyton mentagrophytes, 40 h, pH 7
Description: as §1

[7] = system: Aspergillus fumigatus IAM2530; assay: In vitro antifungal activity, serial agar dilution; settings: IAM2530, 40 h, pH 7
Description: as §1

fungi = settings: reported; cited from earlier work
B16 melanoma = settings: reported; cited from earlier work
[8] = system: B16-F10 (murine melanoma) cells; assay: In vitro cytotoxicity (Table 14); format: cell-based; settings: Mus musculus, B16-F10, 72 h
Description: (§2) B16-F10 (murine melanoma), HCT-116 (human colon carcinoma), A549 (human lung carcinoma) and A549/VP29 (an etoposide-resistant subline of A549) were grown in Eagle's MEM (Nissui) supplemented with FCS (fetal calf serum, 10%) and non-essential amino acids (B16-F10), or in McCoy's 5A medium (Gibco) with FCS (10%), essential and non-essential amino acids, vitamins and antibiotics (HCT-116 and both of A549) at 37° C. under a humidified atmosphere in a 5% CO2 incubator. Exponentially growing B16-F10, HCT-116 and A549 cells were harvested, counted and suspended in the culture medium at 1.5×10^4, 3×10^4 and 3×10^4 cells/ml, respectively. After planting 180 μl of cell suspension into wells of a 96-well microtiter plate on day 0, the test materials (20 μl) were added on day 1 and the plates were incubated for 72 hours. The cytotoxic activity was colorimetrically determined at 540 nm after staining viable cells with neutral red solution.

[9] = system: HCT-116 (human colon carcinoma) cells; assay: In vitro cytotoxicity (Table 14); format: cell-based; settings: HCT-116, 72 h
Description: as §2

C[C@@H]1[C@H](O)[C@@H](C)/C=C/C=C/C=C/C=C/C=C/C=C/C=C/[C@H](O[C@@H]2O[C@H](C)[C@@H](O)[C@H](N)[C@@H]2O)C[C@@H]2O[C@](O)(C[C@@H](O)C[C@@H](O)[C@H](O)CC[C@@H](O)C[C@@H](O)CC(=O)O[C@H]1C)C[C@H](O)[C@H]2C(=O)O [Amphotericin B]
MIC (A. fumigatus IAM2034): 3.1 µg/mL (≈ 3.35 µM)
MIC (C. neoformans IAM4514): 0.8 µg/mL (≈ 0.866 µM)
MIC [1]: 12.5 µg/mL (≈ 13.5 µM)
MIC [2]: 0.8 µg/mL (≈ 0.866 µM)
MIC (Candida albicans IAM4888): 1.6 µg/mL (≈ 1.73 µM)
MIC [3]: > 100 µg/mL
MIC [4]: > 100 µg/mL
MIC (C. albicans A9540): 1.6 µg/mL (≈ 1.73 µM)
MIC (Mucor spinosus IF05317): 6.3 µg/mL (≈ 6.82 µM)
MIC (A. flavus FA21436): 1.6 µg/mL (≈ 1.73 µM)
MIC (Piricularia oryzae D91): 12.5 µg/mL (≈ 13.5 µM)
MIC [5]: 6.3 µg/mL (≈ 6.82 µM)
MIC [6]: 3.1 µg/mL (≈ 3.35 µM)
MIC (T. mentagrophytes #4329): 6.3 µg/mL (≈ 6.82 µM)
MIC [7]: 3.1 µg/mL (≈ 3.35 µM)

C[C@@](O)(/C=C/[C@H]1CC=CC(=O)O1)[C@@H](C[C@@H](O)\C=C/C=C\C=C\CO)OP(=O)(O)O [fostriecin]
antifungal activity (fungi): no antifungal activity
antitumor effect against B16 melanoma (B16 melanoma): no antitumor effect against B16 melanoma

COc1cccc2c1C(=O)c1c(O)c3c(c(O)c1C2=O)C[C@@](O)(C(=O)CO)C[C@@H]3O[C@H]1C[C@H](N)[C@H](O)[C@H](C)O1 [Adriamycin, reference compound]
IC50 [8]: 0.03 µg/mL (≈ 0.0552 µM)
IC50 [9]: 0.3 µg/mL (≈ 0.552 µM)

CC(=O)N1CCN(c2ccc(OCC3COC(Cn4ccnc4)(c4ccc(Cl)cc4Cl)O3)cc2)CC1 (stereo not shown) [Ketoconazole]
MIC (A. fumigatus IAM2034): 6.3 µg/mL (≈ 11.9 µM)
MIC (C. neoformans IAM4514): 0.4 µg/mL (≈ 0.753 µM)
MIC [1]: 0.4 µg/mL (≈ 0.753 µM)
MIC [2]: 0.4 µg/mL (≈ 0.753 µM)
MIC (Candida albicans IAM4888): 50 µg/mL (≈ 94.1 µM)
MIC [3]: 1.6 µg/mL (≈ 3.01 µM)
MIC [4]: 6.3 µg/mL (≈ 11.9 µM)
MIC (C. albicans A9540): 50 µg/mL (≈ 94.1 µM)
MIC (Mucor spinosus IF05317): 100 µg/mL (≈ 188 µM)
MIC (A. flavus FA21436): 0.4 µg/mL (≈ 0.753 µM)
MIC (Piricularia oryzae D91): 3.1 µg/mL (≈ 5.83 µM)
MIC [5]: 1.6 µg/mL (≈ 3.01 µM)
MIC [6]: 6.3 µg/mL (≈ 11.9 µM)
MIC (T. mentagrophytes #4329): 1.6 µg/mL (≈ 3.01 µM)
MIC [7]: 3.1 µg/mL (≈ 5.83 µM)
